PMC8245078, “Development of novel benzofuran-isatin conjugates as potential antiproliferative agents with apoptosis inducing mechanism in Colon cancer” (Journal of Enzyme Inhibition and Medicinal Chemistry, 2021)

Columns and labels:
[1] = test system: HT-29 colorectal cancer cell line; assay: MTT cell viability assay; assay type: cell-based, human; conditions: for inhibition of HT-29 cancer cells viability: 10 µM, 24 h, MTT
Description: (§1) In the present investigation a new set of benzofuran–isatin hybrids (5a–e and 7a–i) was synthesised to be evaluated for their potential anticancer activity towards two human colorectal cancer cell lines, SW-620 and HT-29. […] Both, SW-620 and HT-29 cells were treated with 10 µM of each compound for 24 h and the percent cell viability was calculated using MTT assay.
(§2) For this reason, compounds 5a and 5d were pursued for further studies. Starting with determination of IC50s and cytotoxic selectivity studies. Serial concentrations of compounds 5a and 5d were used to examine their impact on cell viability using MTT protocol. Results of concentration vs percent viability were charted, and the IC50 was calculated for SW-620 and HT-29 cell lines using Graph Pad prism 8 (Figure 4). […]
(§3) [(Ti-Tz)/Tz] x 100 for concentrations for which Ti<Tz […]
(§4) SW620 and HT29 colorectal cancer cell lines and HFF-1 fibroblast (ATCC, Rockville, USA) were used. HT29 cells were cultured and maintained in Dulbecco’s Modified Eagles Medium (DMEM) (GIBCO, by Thermo Fischer Scientific, NY, USA) supplemented with 10% fetal bovine serum (FBS), 100 units/mL penicillin, and 100 μg streptomycin. SW620 and HFF-1 cells were cultured in Roswell Park Memorial Institute medium (RPMI-1640) (GIBCO, by Thermo scientific, NY, USA) supplemented with 10% FBS and 1% penicillin and streptomycin (Napolitano et al., 2015). All cultures were incubated at 37 °C and humidified atmosphere of 5% […]
(§5) 2.3. Cell Viability Assay
(§6) The cytotoxicity effect of compounds on the colorectal cancer cell lines, SW620 and HT29 in addition to the normal human fibroblasts was measured by MTT (3-(4, 5-dimethylthiazol-2-yl)-2,5-diphenyltetrazolium bromide) (Sigma-Aldrich, St. Louis, MO, USA) as previously described. Briefly, cells were seeded in 96 well culture plates at 5000/well for HT29 and 10,000/well for SW620 for 24 h. Cells were then incubated with different compounds from WAG1 series (1-15) 24h at 37 °C and humidified 5% CO2 incubator. Freshly prepared 10 μl of 3-(4,5-dimethylthiazol-2-yl)-2,5-diphenyltetrazolium bromide (MTT 5 mM) solution were added to the cells and further incubated for 2 h. Thereafter, 100 μl of dimethyl sulfoxide (DMSO) were added in each well and the crystals were dissolved through careful pipetting. […]
VA, USA). The experiments were performed in triplicate for each condition. […]
(§7) The total protein concentration was evaluated by the colorimetric
(§8) Bradford protein assay (BIO-RAD inc, CA, USA) at 595 nm absorbance. Lysates were loaded in […]

[2] = test system: SW-620 colorectal cancer cell line; assay: MTT cell viability assay; assay type: cell-based, human; conditions: Homo sapiens, SW-620, SW-620, MTT
Description: as §1, §2, §3, §4, §5
as §6, with “pipetting. In certain experiment, cells were treated different concentration of 5FU for 72 h. The absorbance of the product was measured at 540 nm using a Synergy™ 2 multi-mode microplate reader (Biotech, VA, USA). The experiments were performed in triplicate for each condition.” for “pipetting.”
as §7, §8

Row | SMILES | inhibition of HT-29 cancer cells viability [1] [%] | IC50 [2] [µM] | IC50 ([1]; Homo sapiens, HT-29, HT-29, MTT) [µM]
1 | Cc1c(C(=O)N/N=C2\C(=O)N(Cc3ccc(F)cc3)c3ccc(Br)cc32)oc2ccccc12 [Compound 7i] | > 50 |  | 
2 | Cc1c(C(=O)N/N=C2\C(=O)N(Cc3ccccc3)c3ccc(Br)cc32)oc2ccccc12 [Compound 7h] | > 50 |  | 
3 | CCc1c2c(nc3ccc(OC(=O)N4CCC(N5CCCCC5)CC4)cc13)-c1cc3c(c(=O)n1C2)COC(=O)[C@]3(O)CC [Irinotecan, reference compound] |  | 1 | 6.18
4 | C=CCN1C(=O)/C(=N\NC(=O)c2oc3ccccc3c2C)c2ccccc21 [Compound 7c] | > 50 |  | 
5 | Cc1c(C(=O)N/N=C2\C(=O)N(Cc3ccc(F)cc3)c3ccccc32)oc2ccccc12 [Compound 7e] | > 50 |  | 
